Experimental data as given in the supplement of paper PMC13207355.
± gives the standard deviation of the averaged measurements.

Assays:
Details in all cases: exposure time: 72 h
[1] = test system: E13 (patient-derived glioblastoma stem cells of classical subtype); experiment: phenotypic distance (Euclidean, principal components) from DMSO controls (arbitrary units); higher = stronger morphological change
[2] = test system: E21 (patient-derived glioblastoma stem cells of mesenchymal subtype); experiment: as above
[3] = test system: E28 (patient-derived glioblastoma stem cells of classical subtype); experiment: as above
[4] = test system: E31 (patient-derived glioblastoma stem cells of proneural subtype); experiment: as above
[5] = test system: E34 (patient-derived glioblastoma stem cells of proneural subtype); experiment: as above
[6] = test system: E57 (patient-derived glioblastoma stem cells of mesenchymal subtype); experiment: as above
[7] = test system: FT3469 (normal neural stem cell line); experiment: as above
[8] = test system: E13; experiment: surviving fraction (nuclei count normalised to DMSO); higher = more cells surviving (less toxic)
[9] = test system: E21; experiment: as above
[10] = test system: E28; experiment: as above
[11] = test system: E34; experiment: as above
[12] = test system: E57; experiment: as above
[13] = test system: FT3469; experiment: as above
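For phenotypic distance (Euclidean, principal components) from DMSO controls in this document: cell Painting imaging in 384-well plates, CellProfiler features reduced to at least 20 principal components, Euclidean distance versus same-plate DMSO vehicle wells (0.1% v/v), median over six images per well.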
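For surviving fraction (nuclei count normalised to DMSO) in this document: nuclei counted by high-content imaging of Hoechst-stained cells in laminin-coated 384-well plates, relative to 0.1% DMSO vehicle wells, with staurosporine as cell-death control.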

CC(C)(C)CC(C)(C)c1ccc(OCCOCC[N+](C)(C)Cc2ccccc2)cc1 [Benzethonium chloride]
phenotypic distance
Details	[1]	[2]	[3]	[4]	[5]	[6]	[7]
4.11523 nM	0.537	0.773	0.718	0.922	0.73	0.566	0.694
12.34567901 nM	0.594	1.03	0.685	0.452	0.622	0.67	1.16
37.037 nM	0.837	0.654	0.4	0.793	0.82	0.808	0.855
111.1111111 nM	1.05	1	0.716	0.714	0.847	0.566	0.746
333.333 nM	0.65	0.939	0.667	1.42	0.91	0.524	0.802
1000 nM	1.22	1.3	0.382	1.81	1.21	2.04	2.79
3000 nM	4.92	3.86	4.89	12.9	2.98	4.76	2.88

CN1CCC(NC(=O)c2cc(-c3c(O)cc(O)cc3Oc3ccc([N+](=O)[O-])cc3)on2)CC1 [NMS-E973]
Details	phenotypic distance	surviving fraction
[1], 4.1 nM	0.577 ± 0.024	–
[1], 12.3 nM	0.562 ± 0.12	–
[1], 37 nM	0.639 ± 0.056	–
[1], 111.1 nM	1.31 ± 0.59	–
[1], 333.3 nM	4.489 ± 0.013	–
[1], 1000 nM	5.34 ± 1	–
[1], 3000 nM	5.62 ± 0.2	–
[2], 4.1 nM	0.751 ± 0.092	–
[2], 12.3 nM	0.626 ± 0.14	–
[2], 37 nM	0.843 ± 0.42	–
[2], 111.1 nM	1.82 ± 0.4	–
[2], 333.3 nM	4.147 ± 0.0071	–
[2], 1000 nM	5.3 ± 0.87	–
[2], 3000 nM	5.82 ± 1.7	–
[3], 4.1 nM	0.607 ± 0.16	–
[3], 12.3 nM	0.671 ± 0.17	–
[3], 37 nM	0.573 ± 0.056	–
[3], 111.1 nM	1.19 ± 0.29	–
[3], 333.3 nM	2.09 ± 0.28	–
[3], 1000 nM	5.08 ± 0.38	–
[3], 3000 nM	6.81 ± 1.5	–
[5], 4.1 nM	0.575 ± 0.35	–
[5], 12.3 nM	0.675 ± 0.013	–
[5], 37 nM	0.615 ± 0.26	–
[5], 111.1 nM	1.12 ± 0.27	–
[5], 333.3 nM	1.98 ± 0.084	–
[5], 1000 nM	3.12 ± 0.68	–
[5], 3000 nM	5.65 ± 0.52	–
[6], 4.1 nM	0.456 ± 0.053	–
[6], 12.3 nM	0.414 ± 0.15	–
[6], 37 nM	0.335 ± 0.044	–
[6], 111.1 nM	1.07 ± 0.68	–
[6], 333.3 nM	2.57 ± 0.079	–
[6], 1000 nM	3.42 ± 0.32	–
[6], 3000 nM	4.94 ± 0.064	–
[7], 4.1 nM	2.07 ± 2	–
[7], 12.3 nM	1.21 ± 0.86	–
[7], 37 nM	1.04 ± 0.15	–
[7], 111.1 nM	1.74 ± 0.2	–
[7], 333.3 nM	1.89 ± 0.16	–
[7], 1000 nM	2.79 ± 0.12	–
[7], 3000 nM	3.7 ± 0.28	–
[8], 4.1 nM	–	0.964 ± 0.14
[8], 12.3 nM	–	0.953 ± 0.091
[8], 37 nM	–	0.944 ± 0.13
[8], 111.1 nM	–	0.93 ± 0.01
[8], 333.3 nM	–	0.219 ± 0.06
[8], 1000 nM	–	0.192 ± 0.013
[8], 3000 nM	–	0.21 ± 0.015
[9], 4.1 nM	–	0.891 ± 0.061
[9], 12.3 nM	–	0.959 ± 0.0061
[9], 37 nM	–	0.926 ± 0.024
[9], 111.1 nM	–	0.817 ± 0.085
[9], 333.3 nM	–	0.416 ± 0.039
[9], 1000 nM	–	0.257 ± 0.072
[9], 3000 nM	–	0.116 ± 0.035
[10], 4.1 nM	–	1.01 ± 0.049
[10], 12.3 nM	–	0.913 ± 0.054
[10], 37 nM	–	0.909 ± 0.017
[10], 111.1 nM	–	0.657 ± 0.054
[10], 333.3 nM	–	0.31 ± 0.068
[10], 1000 nM	–	0.0561 ± 0.006
[10], 3000 nM	–	0.0288 ± 0.023
[11], 4.1 nM	–	0.907 ± 0.1
[11], 12.3 nM	–	0.921 ± 0.02
[11], 37 nM	–	0.855 ± 0.041
[11], 111.1 nM	–	0.804 ± 0.063
[11], 333.3 nM	–	0.45 ± 0.024
[11], 1000 nM	–	0.289 ± 0.025
[11], 3000 nM	–	0.0598 ± 0.021
[12], 4.1 nM	–	0.941 ± 0.059
[12], 12.3 nM	–	1.01 ± 0.059
[12], 37 nM	–	0.9484 ± 0.0063
[12], 111.1 nM	–	1.01 ± 0.046
[12], 333.3 nM	–	0.373 ± 0.054
[12], 1000 nM	–	0.0919 ± 0.032
[12], 3000 nM	–	0.0144 ± 0.00078
[13], 4.1 nM	–	0.918 ± 0.12
[13], 12.3 nM	–	0.951 ± 0.017
[13], 37 nM	–	0.975 ± 0.046
[13], 111.1 nM	–	0.798 ± 0.077
[13], 333.3 nM	–	0.677 ± 0.067
[13], 1000 nM	–	0.4901 ± 0.0038
[13], 3000 nM	–	0.4 ± 0.025

Cc1ccc(C(=O)Nc2ccc(CN3CCN(C)CC3)c(C(F)(F)F)c2)cc1C#Cc1cnc2cccnn12 [Ponatinib]
phenotypic distance
Details	[1]	[2]	[3]	[4]	[5]	[6]	[7]
4.1 nM	1.34	2.02	0.791	0.882	1.37	3.43	1.73
12.3 nM	1.37	5.3	1.19	1.09	1.08	4.1	2.15
37 nM	1.75	1.87	1.3	2.13	1.46	3.63	1.36
111.1 nM	2.38	2.05	1.57	2.63	1.59	3.38	1.58
333.3 nM	2.71	4.01	1.29	2.59	2.93	2.19	2.72
1000 nM	3.02	9.73	2.75	11.1	3.77	4.53	4.78
3000 nM	5.54	9.25	3.32	8.04	5.85	5.68	8.72

CCC(C)(C)C(=O)O[C@H]1C[C@@H](C)C=C2C=C[C@H](C)[C@H](CC[C@@H]3C[C@@H](O)CC(=O)O3)[C@H]21 [Simvastatin]
phenotypic distance
Details	[1]	[2]	[3]	[4]	[5]	[6]	[7]
4.1 nM	0.99	1.6	1.08	0.808	1.5	1.7	1.31
12.3 nM	0.654	1.96	1.13	0.911	1.01	0.806	1.32
37 nM	1.13	2.52	1.19	0.566	0.739	1.4	2.33
111.1 nM	1.23	2.77	1.42	1.39	0.945	0.799	1.86
333.3 nM	2.27	4.05	1.61	1	1.16	1.19	2.21
1000 nM	2.58	4.54	1.56	0.996	0.529	1.46	2.66
3000 nM	4.02	5.96	3.67	3.45	1.72	3.54	3.39

COc1cc2c(NC3CCN(C(C)C)CC3)nc(C3CCCCC3)nc2cc1OCCCN1CCCC1 [UNC0638]
Details	phenotypic distance	surviving fraction
[1], 4.1 nM	0.43 ± 0.14	–
[1], 12.3 nM	0.523 ± 0.047	–
[1], 37 nM	0.48 ± 0.18	–
[1], 111.1 nM	0.587 ± 0.021	–
[1], 333.3 nM	0.476 ± 0.11	–
[1], 1000 nM	0.582 ± 0.19	–
[1], 3000 nM	1.57 ± 1.5	–
[2], 4.1 nM	0.389 ± 0.17	–
[2], 12.3 nM	0.354 ± 0.025	–
[2], 37 nM	0.463 ± 0.036	–
[2], 111.1 nM	1.99 ± 1.9	–
[2], 333.3 nM	0.574 ± 0.19	–
[2], 1000 nM	0.957 ± 0.4	–
[2], 3000 nM	2.1 ± 1.1	–
[3], 4.1 nM	0.389 ± 0.055	–
[3], 12.3 nM	0.447 ± 0.013	–
[3], 37 nM	0.394 ± 0.089	–
[3], 111.1 nM	0.488 ± 0.12	–
[3], 333.3 nM	0.53 ± 0.16	–
[3], 1000 nM	0.586 ± 0.16	–
[3], 3000 nM	1.38 ± 0.079	–
[5], 4.1 nM	0.461 ± 0.039	–
[5], 12.3 nM	0.632 ± 0.034	–
[5], 37 nM	0.627 ± 0.069	–
[5], 111.1 nM	0.646 ± 0.2	–
[5], 333.3 nM	0.795 ± 0.19	–
[5], 1000 nM	0.627 ± 0.16	–
[5], 3000 nM	0.864 ± 0.011	–
[6], 4.1 nM	0.284 ± 0.097	–
[6], 12.3 nM	0.449 ± 0.097	–
[6], 37 nM	0.421 ± 0.22	–
[6], 111.1 nM	0.484 ± 0.01	–
[6], 333.3 nM	0.486 ± 0.04	–
[6], 1000 nM	0.443 ± 0.059	–
[6], 3000 nM	1.09 ± 0.84	–
[7], 4.1 nM	0.514 ± 0.037	–
[7], 12.3 nM	0.766 ± 0.21	–
[7], 37 nM	0.527 ± 0.14	–
[7], 111.1 nM	0.558 ± 0.044	–
[7], 333.3 nM	0.523 ± 0.12	–
[7], 1000 nM	0.714 ± 0.2	–
[7], 3000 nM	3.19 ± 1.4	–
[8], 4.1 nM	–	0.973 ± 0.052
[8], 12.3 nM	–	0.986 ± 0.072
[8], 37 nM	–	0.987 ± 0.044
[8], 111.1 nM	–	0.957 ± 0.046
[8], 333.3 nM	–	1.01 ± 0.06
[8], 1000 nM	–	0.938 ± 0.075
[8], 3000 nM	–	0.894 ± 0.052
[9], 4.1 nM	–	0.976 ± 0.025
[9], 12.3 nM	–	0.999 ± 0.021
[9], 37 nM	–	1.11 ± 0.078
[9], 111.1 nM	–	1.02 ± 0.056
[9], 333.3 nM	–	0.976 ± 0.057
[9], 1000 nM	–	0.933 ± 0.043
[9], 3000 nM	–	0.808 ± 0.079
[10], 4.1 nM	–	1.03 ± 0.059
[10], 12.3 nM	–	0.988 ± 0.021
[10], 37 nM	–	1.01 ± 0.04
[10], 111.1 nM	–	1.01 ± 0.13
[10], 333.3 nM	–	0.967 ± 0.024
[10], 1000 nM	–	1.03 ± 0.03
[10], 3000 nM	–	0.942 ± 0.11
[11], 4.1 nM	–	0.998 ± 0.042
[11], 12.3 nM	–	1.1 ± 0.037
[11], 37 nM	–	1.082 ± 0.0079
[11], 111.1 nM	–	1.07 ± 0.13
[11], 333.3 nM	–	1.15 ± 0.087
[11], 1000 nM	–	1.07 ± 0.028
[11], 3000 nM	–	0.964 ± 0.085
[12], 4.1 nM	–	1.03 ± 0.0031
[12], 12.3 nM	–	1.02 ± 0.035
[12], 37 nM	–	1.084 ± 0.0082
[12], 111.1 nM	–	1.01 ± 0.046
[12], 333.3 nM	–	1.0497 ± 0.00039
[12], 1000 nM	–	1.08 ± 0.036
[12], 3000 nM	–	1.05 ± 0.12
[13], 4.1 nM	–	1.03 ± 0.046
[13], 12.3 nM	–	1.02 ± 0.1
[13], 37 nM	–	0.961 ± 0.01
[13], 111.1 nM	–	0.975 ± 0.035
[13], 333.3 nM	–	0.953 ± 0.046
[13], 1000 nM	–	0.929 ± 0.08
[13], 3000 nM	–	0.864 ± 0.018
